Results: ChEMBL document CHEMBL1135452, “Side-chain homologation of nodulisporic acid: synthesis of potent new dienyl derivatives” (Bioorg Med Chem Lett, 2002)

System: Pulicinae
Test: In vitro systemic flea efficacy using membrane feeding assay.
Assay type: functional

Structure (SMILES)	Activity
C=C/C=C/[C@]1(C)[C@@H](O)CC[C@@]2(C)[C@H]1CCC1Cc3c(n4c5c(c6c(cc35)C3=CC(C)(C)OC(C)(C)C3[C@@H]6O)C(=O)[C@@H]4C(=C)C)[C@@]12C (stereo partly specified)	10 p.p.m.
C=C(C)[C@H]1C(=O)c2c3c(cc4c5c(n1c24)[C@@]1(C)C(CC[C@H]2[C@](C)(/C=C/C=C(\F)C(=O)NCC)[C@@H](O)CC[C@@]21C)C5)C1=CC(C)(C)OC(C)(C)C1[C@@H]3O (stereo partly specified)	1 p.p.m.
C=C(C)[C@H]1C(=O)c2c3c(cc4c5c(n1c24)[C@@]1(C)C(CC[C@H]2[C@](C)(/C=C/C=C(\CC)C(=O)O)[C@@H](O)CC[C@@]21C)C5)C1=CC(C)(C)OC(C)(C)C1[C@@H]3O (stereo partly specified)	10 p.p.m.
C=C(C)[C@H]1C(=O)c2c3c(cc4c5c(n1c24)[C@@]1(C)C(CC[C@H]2[C@](C)(/C=C/C=C(\F)C(=O)NC(C)(C)C)[C@@H](O)CC[C@@]21C)C5)C1=CC(C)(C)OC(C)(C)C1[C@@H]3O (stereo partly specified)	1 p.p.m.
C=C(C)[C@H]1C(=O)c2c3c(cc4c5c(n1c24)[C@@]1(C)C(CC[C@H]2[C@](C)(/C=C/C=C(\C(C)=O)C(=O)N(C)C)[C@@H](O)CC[C@@]21C)C5)C1=CC(C)(C)OC(C)(C)C1[C@@H]3O (stereo partly specified)	1 p.p.m.
C=C(C)[C@H]1C(=O)c2c3c(cc4c5c(n1c24)[C@@]1(C)C(CC[C@H]2[C@](C)(/C=C/C=C/P(=O)(OCC)OCC)[C@@H](O)CC[C@@]21C)C5)C1=CC(C)(C)OC(C)(C)C1[C@@H]3O (stereo partly specified)	10 p.p.m.
C=C(C)[C@H]1C(=O)c2c3c(cc4c5c(n1c24)[C@@]1(C)C(CC[C@H]2[C@](C)(/C=C/C=C(\CCC)C(N)=O)[C@@H](O)CC[C@@]21C)C5)C1=CC(C)(C)OC(C)(C)C1[C@@H]3O (stereo partly specified)	10 p.p.m.
C=C(C)[C@H]1C(=O)c2c3c(cc4c5c(n1c24)[C@@]1(C)C(CC[C@H]2[C@](C)(/C=C/C=C(\C#N)c4nc6ccccc6[nH]4)[C@@H](O)CC[C@@]21C)C5)C1=CC(C)(C)OC(C)(C)C1[C@@H]3O (stereo partly specified)	10 p.p.m.
C=C(C)[C@H]1C(=O)c2c3c(cc4c5c(n1c24)[C@@]1(C)C(CC[C@H]2[C@](C)(/C=C/C(C)=C/C(=O)O)[C@@H](O)CC[C@@]21C)C5)C1=CC(C)(C)OC(C)(C)C1[C@@H]3O (stereo partly specified)	10 p.p.m.
C=C(C)[C@H]1C(=O)c2c3c(cc4c5c(n1c24)[C@@]1(C)C(CC[C@H]2[C@](C)(/C=C/C=C(\CCC)C(=O)NCC)[C@@H](O)CC[C@@]21C)C5)C1=CC(C)(C)OC(C)(C)C1[C@@H]3O (stereo in doubt; 45)	1 p.p.m.
C=C(C)[C@H]1C(=O)c2c3c(cc4c5c(n1c24)[C@@]1(C)C(CC[C@H]2[C@](C)(/C=C/C(C)=C/C(=O)NC(C)(C)C)[C@@H](O)CC[C@@]21C)C5)C1=CC(C)(C)OC(C)(C)C1[C@@H]3O (stereo partly specified)	10 p.p.m.
C=CC/C(=C\C=C\[C@]1(C)[C@@H](O)CC[C@@]2(C)[C@H]1CCC1Cc3c(n4c5c(c6c(cc35)C3=CC(C)(C)OC(C)(C)C3[C@@H]6O)C(=O)[C@@H]4C(=C)C)[C@@]12C)C(N)=O (stereo partly specified)	1 p.p.m.
C=C(C)[C@H]1C(=O)c2c3c(cc4c5c(n1c24)[C@@]1(C)C(CC[C@H]2[C@](C)(/C=C/C=C/C(=O)OCc4ccccc4)[C@@H](O)CC[C@@]21C)C5)C1=CC(C)(C)OC(C)(C)C1[C@@H]3O (stereo partly specified)	10 p.p.m.
C=C(C)[C@H]1C(=O)c2c3c(cc4c5c(n1c24)[C@@]1(C)C(CC[C@H]2[C@](C)(/C=C/C=C(\OC)C(=O)O)[C@@H](O)CC[C@@]21C)C5)C1=CC(C)(C)OC(C)(C)C1[C@@H]3O (stereo partly specified)	10 p.p.m.
C=C(C)[C@H]1C(=O)c2c3c(cc4c5c(n1c24)[C@@]1(C)C(CC[C@H]2[C@](C)(/C=C/C=C(\C)C(=O)O)[C@@H](O)CC[C@@]21C)C5)C1=CC(C)(C)OC(C)(C)C1[C@@H]3O (stereo partly specified)	1 p.p.m.
C=CC/C(=C\C=C\[C@]1(C)[C@@H](O)CC[C@@]2(C)[C@H]1CCC1Cc3c(n4c5c(c6c(cc35)C3=CC(C)(C)OC(C)(C)C3[C@@H]6O)C(=O)[C@@H]4C(=C)C)[C@@]12C)C(=O)NCC (stereo partly specified)	1 p.p.m.

Structure (SMILES)	Activity
C=C(C)[C@H]1C(=O)c2c3c(cc4c5c(n1c24)[C@@]1(C)C(CC[C@H]2[C@](C)(/C=C/C=C(\CC)C(=O)N(C)C)[C@@H](O)CC[C@@]21C)C5)C1=CC(C)(C)OC(C)(C)C1[C@@H]3O (stereo partly specified)	1 p.p.m.
C=C(C)[C@H]1C(=O)c2c3c(cc4c5c(n1c24)[C@@]1(C)C(CC[C@H]2[C@](C)(/C=C/C=C/C(=O)OCC)[C@@H](O)CC[C@@]21C)C5)C1=CC(C)(C)OC(C)(C)C1[C@@H]3O (stereo partly specified)	1 p.p.m.
C=C(C)[C@H]1C(=O)c2c3c(cc4c5c(n1c24)[C@@]1(C)C(CC[C@H]2[C@](C)(/C=C/C(C)=C/C(=O)NCC)[C@@H](O)CC[C@@]21C)C5)C1=CC(C)(C)OC(C)(C)C1[C@@H]3O (stereo partly specified)	10 p.p.m.
C=C(C)[C@H]1C(=O)c2c3c(cc4c5c(n1c24)[C@@]1(C)C(CC[C@H]2[C@](C)(/C=C/C=C/C(=O)O)[C@@H](O)CC[C@@]21C)C5)C1=CC(C)(C)OC(C)(C)C1[C@@H]3O (stereo partly specified)	10 p.p.m.
C=CCOC(=O)/C=C/C=C/[C@]1(C)[C@@H](O)CC[C@@]2(C)[C@H]1CCC1Cc3c(n4c5c(c6c(cc35)C3=CC(C)(C)OC(C)(C)C3[C@@H]6O)C(=O)[C@@H]4C(=C)C)[C@@]12C (stereo partly specified)	1 p.p.m.
C=C(C)[C@H]1C(=O)c2c3c(cc4c5c(n1c24)[C@@]1(C)C(CC[C@H]2[C@](C)(/C=C/C=C(\CC)C(=O)N4CCCC4)[C@@H](O)CC[C@@]21C)C5)C1=CC(C)(C)OC(C)(C)C1[C@@H]3O (stereo partly specified)	10 p.p.m.
C=C(C)[C@H]1C(=O)c2c3c(cc4c5c(n1c24)[C@@]1(C)C(CC[C@H]2[C@](C)(/C=C/C=C(\OC)C(N)=O)[C@@H](O)CC[C@@]21C)C5)C1=CC(C)(C)OC(C)(C)C1[C@@H]3O (stereo partly specified)	10 p.p.m.
C=C(C)[C@H]1C(=O)c2c3c(cc4c5c(n1c24)[C@@]1(C)C(CC[C@H]2[C@](C)(/C=C/C=C/C(=O)N(C)CC)[C@@H](O)CC[C@@]21C)C5)C1=CC(C)(C)OC(C)(C)C1[C@@H]3O (stereo partly specified)	1 p.p.m.
C=C(C)[C@H]1C(=O)c2c3c(cc4c5c(n1c24)[C@@]1(C)C(CC[C@H]2[C@](C)(/C=C/C=C/C(=O)OC(C)(C)C)[C@@H](O)CC[C@@]21C)C5)C1=CC(C)(C)OC(C)(C)C1[C@@H]3O (stereo partly specified)	10 p.p.m.
C=C(C)[C@H]1C(=O)c2c3c(cc4c5c(n1c24)[C@@]1(C)C(CC[C@H]2[C@](C)(/C=C/C=C/C(=O)NC(C)(C)C)[C@@H](O)CC[C@@]21C)C5)C1=CC(C)(C)OC(C)(C)C1[C@@H]3O (stereo partly specified)	1 p.p.m.
C=C(C)[C@H]1C(=O)c2c3c(cc4c5c(n1c24)[C@@]1(C)C(CC[C@H]2[C@](C)(/C=C/C=C(\C#N)C(=O)N4CCCC4)[C@@H](O)CC[C@@]21C)C5)C1=CC(C)(C)OC(C)(C)C1[C@@H]3O (stereo partly specified)	10 p.p.m.
C=C(C)[C@H]1C(=O)c2c3c(cc4c5c(n1c24)[C@@]1(C)C(CC[C@H]2[C@](C)(/C=C/C=C/C(N)=O)[C@@H](O)CC[C@@]21C)C5)C1=CC(C)(C)OC(C)(C)C1[C@@H]3O (stereo partly specified)	1 p.p.m.
C=C(C)[C@H]1C(=O)c2c3c(cc4c5c(n1c24)[C@@]1(C)C(CC[C@H]2[C@](C)(/C=C/C=C(\CCCC)C(=O)NCC)[C@@H](O)CC[C@@]21C)C5)C1=CC(C)(C)OC(C)(C)C1[C@@H]3O (stereo partly specified)	1 p.p.m.
C=C(C)[C@H]1C(=O)c2c3c(cc4c5c(n1c24)[C@@]1(C)C(CC[C@H]2[C@](C)(/C=C/C=C(\CCC)C(=O)NCC)[C@@H](O)CC[C@@]21C)C5)C1=CC(C)(C)OC(C)(C)C1[C@@H]3O (stereo in doubt)	10 p.p.m.
C=CC/C(=C\C=C\[C@]1(C)[C@@H](O)CC[C@@]2(C)[C@H]1CCC1Cc3c(n4c5c(c6c(cc35)C3=CC(C)(C)OC(C)(C)C3[C@@H]6O)C(=O)[C@@H]4C(=C)C)[C@@]12C)C(=O)N(C)C (stereo partly specified)	1 p.p.m.
